The record followed here is US20240041951A1, “METHOD FOR IMPROVING PRODUCTIVITY IN LIVESTOCK AND/OR POULTRY AND METHOD FOR IMPROVING INTESTINAL FLORA IN LIVESTOCK AND/OR POULTRY” (Hayashibara Co., Ltd., priority 2020, published 2024).

Molecules are shown by their SMILES. Where two headings read alike, the source gives them in different places. Marks after values point to notes of the source that are not given here.

Format in all cases: in vivo, male Chunky broiler chickens
In experiment [1] the test system is bacteria belonging to the genus Lactobacillus. The experiment in a line: Intestinal flora: number of Lactobacillus cells in ileum content of reared broiler chickens. To be noted: ileum content at 24 days old.
In experiment [2] the test system is Welch bacillus (Clostridium perfringens). As to conditions: ileum content at 24 days old, average of stocking densities 11 and 14 individuals/m^2, * = significant vs control (p<0.05).
A short description of experiment [3]: Rearing test: body weight, weight gain, feed intake and feed conversion ratio. As to conditions: for Feed conversion ratio: feed intake/weight gain.
A short description of experiment [4]: Rearing test: uniformity of body weight (coefficient of variation). As to conditions: body weights of individual chickens at 42 days old; (standard deviation/average)×100.
Where [5] appears, read: from 0 day old to 42 days old (entire rearing period).
[6] abbreviates: from 0 day old to 42 days old (entire rearing period), listed as trehalose group.
The mark [7] stands for this setting: from 35 days old to 42 days old (finishing period).
[8] abbreviates: from 35 days old to 42 days old (finishing period), listed as trehalose group.

Regarding `OC[C@H]1O[C@H](O[C@H]2O[C@H](CO)[C@@H](O)[C@H](O)[C@H]2O)[C@H](O)[C@@H](O)[C@@H]1O` [Trehalose group, α,α-trehalose], the “Number of microbial cells, Lactobacillus spp.” value in experiment [1] is on record as 10.2 × 10^7 cells/g; in experiment [1] (listed as trehalose group), 10.2×10^7 cells/g. Further, the “Number of microbial cells, Clostridium perfringens” value in experiment [2] was 0.37 × 10^2* cells/g; in experiment [2] (listed as trehalose group) it was 0.37×10^2 cells/g. The Average body weight in experiment [3] (0 day old (start of rearing)) is listed as 41 g; in experiment [3] (35 days old) it was 2621 g; in experiment [3] (42 days old) it was 3251 g. The Feed intake in experiment [3] (from 0 day old to 35 days old) was 3458 g; in experiment [3] (setting [5]), 4756 g; in experiment [3] (setting [7]), 1320 g. Besides, the Weight gain is 2580 g in experiment [3] (from 0 day old to 35 days old); 3210* g in experiment [3] (setting [5]); 3210 g in experiment [3] (setting [6]); 630* g in experiment [3] (setting [7]); 630 g in experiment [3] (setting [8]). The Feed conversion ratio in experiment [3] (from 0 day old to 35 days old) was 1.340; in experiment [3] (setting [5]), 1.482*; in experiment [3] (setting [6]) it was 1.482; in experiment [3] (setting [7]) it was 2.095*; in experiment [3] (setting [8]), 2.095. In experiment [4], this compound had a Coefficient of variation of 7.9%.
